Measurements: US20150038545A1, “HYDROXYPHENYL PYRROLE COMPOUNDS CONTAINING AN HYDROXAMIC ACID AS HDAC INHIBITORS AND MEDICINAL APPLICATIONS THEREOF” (UNIVERSIDAD DEL PAÍS VASCO, priority 2011, published 2015)

What was measured:
PC-3 = experiment: Cancer cell growth inhibition (CellTiter-Glo), PC-3; assay type: cell-based, Human; details: Homo sapiens; Prostate Cancer, PC-3, 72 h treatment
Method: (§1) Cell culture-based assays were used to evaluate the ability of compounds of the invention to inhibit cancer cell growth.
(§2) Cells were obtained from the American Type Culture Collection (ATCC). Cells were cultured at 37° C. with 5% CO2 in the appropriate growth medium (see table below), and harvested respectively during the logarithmic growth period and counted with hemocytometer. The cell viability was examined by trypan blue exclusion. Cell concentrations were adjusted to 5.56×10^4 cells/ml with respective medium.
(§3) Stock solutions of test compounds and positive drugs Doxorubicin (Zhejiang, Haizheng, China), Cisplatin (Nanjing Zhiyao, China) and Mitomycin (Zhejiang, Haizheng, China) were prepared in dimethyl sulphoxide (DMSO) or PBS at 20 mM.
(§4) In order to determine the IC50 for each compound, experiments were carried out in 96-well plates and the cell lines seeded at a density of 5,000 cells/well. […] All treatments were performed in triplicate. 10 μl of drug solution was added to each well and incubated for 72 hours. At the end of the incubation, 100 μl of the CellTiter-Glo Reagent were added to each well and the contents were mixed for 2 munites on an orbital shaker to induce cell lysis. The plate was incubated at room temperature for 10 minutes to stabilize luminiscent signal, and luminiscent was recorded. […] In order to calculate IC50 values, dose-responsive curves were fitted using nonlinear regression model with a sigmoidal dose response.

LoVo = experiment: Cancer cell growth inhibition (CellTiter-Glo), LoVo; assay type: cell-based, Human; details: Homo sapiens, Colorectal Cancer, 72 h treatment
Method: as §1, §2, §3, §4

MDA-MB-231 = experiment: Cancer cell growth inhibition (CellTiter-Glo), MDA-MB-231; assay type: cell-based; details: Homo sapiens; Breast Cancer, MDA-MB-231, 72 h treatment
Method: as §1, §2, §3, §4

DLD-1 = experiment: Cancer cell growth inhibition (CellTiter-Glo), DLD-1; assay type: cell-based, Human; details: Homo sapiens; Colorectal Cancer, DLD-1, 72 h treatment
Method: as §1, §2, §3, §4

SK-HEP-1 = experiment: Cancer cell growth inhibition (CellTiter-Glo), SK-HEP-1; assay type: cell-based; details: Homo sapiens, SK-HEP1; Liver Cancer, SK-HEP-1, 72 h treatment
Method: as §1, §2, §3, §4

HCT-116 = experiment: Cancer cell growth inhibition (CellTiter-Glo), HCT-116; assay type: cell-based; details: Homo sapiens; Colorectal Cancer, HCT-116, 72 h treatment
Method: as §1, §2, §3, §4

IC50 (PC-3) | IC50 (LoVo) | IC50 (MDA-MB-231) | IC50 (DLD-1) | IC50 (SK-HEP-1) | IC50 (HCT-116) | Compound
17.9 µM | 1.4 µM | 4.33 µM | 1.62 µM | 4.03 µM | 0.95 µM | O=C(CCCCCNC(=O)c1[nH]c(-c2ccccc2)cc1-c1ccc(O)cc1)NO [Example 1, N-(6-(hydroxyamino)-6-oxohexyl)-3-(4-hydroxyphenyl)-5-phenyl-1H-pyrrole-2-carboxamide]
25.8 µM | 1.08 µM | 8.02 µM | 2.51 µM | 1.84 µM | 0.45 µM | O=C(CCCCCNC(=O)c1[nH]c(-c2ccc(O)cc2)cc1-c1ccoc1)NO [Example 5, 3-(3-furyl)-N-(5-(hydroxycarbamoyl)pentyl)-5-(4-hydroxy-phenyl)-1H-pyrrole-2-carboxamide]
26.9 µM | 2.69 µM | 9.03 µM | 4.19 µM | 6.04 µM | 1.75 µM | O=C(CCCCCNC(=O)c1[nH]c(-c2ccc(O)cc2)cc1-c1ccccc1)NO [Example 2, N-(6-(hydroxyamino)-6-oxohexyl)-5-(4-hydroxyphenyl)-3-phenyl-1H-pyrrole-2-carboxamide]
26.8 µM | 1.24 µM | 7.89 µM | 3.5 µM | 3.13 µM | 0.78 µM | O=C(CCCCCNC(=O)c1[nH]c(-c2ccc(O)cc2)cc1-c1ccsc1)NO [Example 6, N-(5-(hydroxycarbamoyl)pentyl)-5-(4-hydroxyphenyl)-3-(3-thienyl)-1H-pyrrole-2-carboxamide]
